According to PubChem BioAssay (NCI):
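Interpolation was linear, between the two tested concentrations surrounding the appropriate level; five concentrations were tested over 48 hours in 96-well plates. The concentration for full growth arrest is given as TGI.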

How the values were obtained:
Assay in all cases: NCI anticancer screen, dose series, 48 h
[1] = tested on: IGROV1 ovarian
[2] = tested on: SF-539 CNS
[3] = tested on: MOLT-4 leukemia
[4] = tested on: TK-10 renal
[5] = tested on: SK-MEL-5 melanoma
[6] = tested on: LXFL 529 NSCLC
[7] = tested on: SK-OV-3 ovarian
[8] = tested on: 786-0 renal
[9] = tested on: HL-60(TB) leukemia
[10] = tested on: DLD-1 colon
[11] = tested on: NCI-H226 lung
[12] = tested on: SK-MEL-2 melanoma
[13] = tested on: U251 CNS
[14] = tested on: DMS 114 small cell lung
[15] = tested on: NCI-H522 lung
[16] = tested on: HCC-2998 colon
[17] = tested on: SW-620 colon
[18] = tested on: COLO 205 colon
[19] = tested on: HCT-116 colon
[20] = tested on: RPMI-8226 leukemia
[21] = tested on: EKVX NSCLC
[22] = tested on: HOP-18 NSCLC
[23] = tested on: SNB-75 CNS
[24] = tested on: RXF 393 renal
[25] = tested on: OVCAR-3 ovarian
[26] = tested on: SF-295 CNS
[27] = tested on: SNB-19 CNS
[28] = tested on: UACC-257 melanoma
[29] = tested on: UO-31 renal
[30] = tested on: MALME-3M melanoma
[31] = tested on: SR leukemia
[32] = tested on: OVCAR-8 ovarian
[33] = tested on: A498 renal
[34] = tested on: KM20L2 colon
[35] = tested on: NCI-H460 lung
[36] = tested on: K-562 leukemia
[37] = tested on: HT29 colon
[38] = tested on: ACHN renal
[39] = tested on: A549 NSCLC
[40] = tested on: CAKI-1 renal
[41] = tested on: SK-MEL-28 melanoma
[42] = tested on: SN12C renal
[43] = tested on: DMS 273 small cell lung
[44] = tested on: SNB-78 CNS
[45] = tested on: KM12 colon
[46] = tested on: CCRF-CEM leukemia
[47] = tested on: M19-MEL melanoma
[48] = tested on: NCI-H23 lung
[49] = tested on: UACC-62 melanoma
[50] = tested on: SF-268 CNS
[51] = tested on: MDA-MB-231 breast
[52] = tested on: DU-145 prostate
[53] = tested on: HOP-62 NSCLC
[54] = tested on: OVCAR-4 ovarian
[55] = tested on: BT-549 breast
[56] = tested on: MDA-N
[57] = tested on: M14 melanoma
[58] = tested on: LOX IMVI melanoma
[59] = tested on: NCI/ADR-RES ovarian
[60] = tested on: OVCAR-5 ovarian
[61] = tested on: HS 578T breast
[62] = tested on: MCF7 breast
[63] = tested on: T-47D breast
[64] = tested on: MDA-MB-435
[65] = tested on: PC-3 prostate
[66] = tested on: HCT-15 colon
[67] = tested on: HOP-92 NSCLC

In the case of `C1CN2CCO[SiH](O1)OCC2`, the TGI [1] is reported as > 100 µM, the TGI [2] is reported as > 100 µM and the TGI [3] is reported as > 100 µM. For the same compound, the TGI [4] was > 100 µM, the TGI [5] was > 100 µM and the TGI [6] was > 100 µM. For the same compound, the TGI [7] was > 100 µM, the TGI [8] was > 100 µM and the TGI [9] was > 100 µM. The TGI [10] was > 100 µM, the TGI [11] was > 100 µM and the TGI [12] was > 100 µM. For the same compound, the TGI [13] was > 100 µM, the TGI [14] was > 100 µM and the TGI [15] was > 100 µM. The TGI [16] was > 100 µM, the TGI [17] was > 100 µM and the TGI [18] was > 100 µM. For the same compound, the TGI [19] was > 100 µM, the TGI [20] was > 100 µM and the TGI [21] was > 100 µM. For the same compound, the TGI [22] was > 100 µM, the TGI [23] was > 100 µM and the TGI [24] was > 100 µM. The TGI [25] was > 100 µM, the TGI [26] was > 100 µM and the TGI [27] was > 100 µM. For the same compound, the TGI [28] was > 100 µM, the TGI [29] was > 100 µM and the TGI [30] was > 100 µM. The TGI [31] was > 100 µM, the TGI [32] was > 100 µM and the TGI [33] was > 100 µM. For the same compound, the TGI [34] was > 100 µM, the TGI [35] was > 100 µM and the TGI [36] was > 100 µM. For the same compound, the TGI [37] was > 100 µM, the TGI [38] was > 100 µM and the TGI [39] was > 100 µM. The TGI [40] was > 100 µM, the TGI [41] was > 100 µM and the TGI [42] was > 100 µM. The TGI [43] was > 100 µM, the TGI [44] was > 100 µM and the TGI [45] was > 100 µM. The TGI [46] was > 100 µM, the TGI [47] was > 100 µM and the TGI [48] was > 100 µM. The TGI [49] was > 100 µM and the TGI [50] was > 100 µM.
With `C[C@H]1CCC/C=C/[C@@H]2C[C@H](OC3OC(CO)C(O)C(O)C3O)C[C@H]2[C@H](O)/C=C/C(=O)O1` (some centres undefined) the TGI [1] was > 100 µM, the TGI [2] was > 100 µM and the TGI [3] was > 100 µM. For the same compound, the TGI [4] was > 100 µM, the TGI [51] was 42.9 µM and the TGI [5] was 31.6 µM. The TGI [52] was > 100 µM, the TGI [7] was > 100 µM and the TGI [8] was > 100 µM. For the same compound, the TGI [9] was > 100 µM, the TGI [11] was > 100 µM and the TGI [12] was > 100 µM. The TGI [13] was > 100 µM, the TGI [15] was > 100 µM and the TGI [16] was > 100 µM. For the same compound, the TGI [53] was > 100 µM, the TGI [17] was > 100 µM and the TGI [54] was > 100 µM. The TGI [55] was > 100 µM, the TGI [18] was 31.9 µM and the TGI [19] was > 100 µM. For the same compound, the TGI [20] was > 100 µM, the TGI [21] was > 100 µM and the TGI [56] was > 100 µM. For the same compound, the TGI [23] was > 100 µM, the TGI [24] was 87.3 µM and the TGI [25] was > 100 µM. For the same compound, the TGI [57] was > 100 µM, the TGI [26] was > 100 µM and the TGI [27] was > 100 µM. The TGI [28] was 78.9 µM, the TGI [58] was > 100 µM and the TGI [59] was > 100 µM. The TGI [60] was > 100 µM, the TGI [29] was > 100 µM and the TGI [30] was 33.1 µM. The TGI [31] was > 100 µM, the TGI [32] was > 100 µM and the TGI [61] was > 100 µM. For the same compound, the TGI [33] was 69.1 µM, the TGI [35] was > 100 µM and the TGI [62] was > 100 µM. The TGI [36] was > 100 µM, the TGI [37] was > 100 µM and the TGI [38] was > 100 µM. The TGI [63] was > 100 µM, the TGI [39] was > 100 µM and the TGI [64] was > 100 µM. For the same compound, the TGI [40] was > 100 µM, the TGI [41] was 87.3 µM and the TGI [42] was > 100 µM. The TGI [45] was 98 µM, the TGI [65] was > 100 µM and the TGI [46] was > 100 µM. The TGI [48] was > 100 µM, the TGI [66] was > 100 µM and the TGI [67] was > 100 µM. For the same compound, the TGI [49] was > 100 µM and the TGI [50] was > 100 µM.
With `Cc1nc2sccn2c1C(=O)NNC(N)=S` the TGI [1] was > 100 µM, the TGI [2] was > 100 µM and the TGI [3] was > 100 µM. For the same compound, the TGI [4] was > 100 µM, the TGI [5] was > 100 µM and the TGI [6] was > 100 µM. For the same compound, the TGI [7] was > 100 µM, the TGI [8] was > 100 µM and the TGI [9] was > 100 µM. The TGI [10] was > 100 µM, the TGI [11] was > 100 µM and the TGI [12] was > 100 µM. The TGI [13] was > 100 µM, the TGI [14] was > 100 µM and the TGI [15] was > 100 µM. The TGI [16] was > 100 µM, the TGI [53] was > 100 µM and the TGI [17] was > 100 µM. The TGI [18] was > 100 µM, the TGI [19] was > 100 µM and the TGI [20] was > 100 µM. For the same compound, the TGI [21] was > 100 µM, the TGI [22] was > 100 µM and the TGI [24] was > 100 µM. For the same compound, the TGI [25] was > 100 µM, the TGI [26] was > 100 µM and the TGI [27] was > 100 µM. The TGI [28] was > 100 µM, the TGI [58] was > 100 µM and the TGI [60] was > 100 µM. For the same compound, the TGI [30] was > 100 µM, the TGI [31] was > 100 µM and the TGI [32] was > 100 µM. For the same compound, the TGI [34] was > 100 µM, the TGI [35] was > 100 µM and the TGI [36] was > 100 µM. The TGI [37] was > 100 µM, the TGI [38] was > 100 µM and the TGI [39] was > 100 µM. For the same compound, the TGI [40] was > 100 µM, the TGI [41] was > 100 µM and the TGI [42] was > 100 µM. For the same compound, the TGI [43] was > 100 µM, the TGI [45] was > 100 µM and the TGI [46] was > 100 µM. The TGI [48] was > 100 µM, the TGI [66] was > 100 µM and the TGI [67] was > 100 µM. The TGI [49] was > 100 µM and the TGI [50] was > 100 µM.
